Laboratory results: patent US12458700B2, “Amine-containing transfection reagents and methods for making and using same” (Life Technologies Corporation, priority 2010, dated 2025)

System: CSNK2A1
Test: CSNK2A1 siRNA knockdown by qPCR in Hela, primary cortical neurons and primary hippocampal neurons
Assay type: cell-based, human, rat
Conditions: lipoplex with cholesterol 1:0.5, 30 nM siRNA, 24 h, FIG. 5
Excerpt: Some lipids of the present invention were formulated into lipid compositions, which also comprise cholesterol or DOPE, buffers and ethanol. Animal origin-free cholesterol was purchased from Sigma-Aldrich (St Louis, MO) and DOPE was purchased from Avanti Lipids (Alabaster, AL). Silencer® Select CSNK2A1 siRNA and Silencer® Select negative control siRNA (cat #4390824 siRNA id#s3637 and cat #4390843) having the antisense sequence […] (SEQ ID NO:2) and […] (SEQ ID NO:3), respectively, were resuspended with nuclease-free water to a stock concentration of 50 μM, which were further diluted to meet downstream experiments and is commercially available from Life Technologies (Carlsbad, CA).
For compounds 83 and 67, the dry powder lipids were re-suspended in ethanol at a final concentration of 1 mg/ml and either used as lipid alone (Compound 83) or combined with cholesterol in 1:0.5 ratio (Compound 67). The formulations tested were made as described in Table 3
Primary rat cortex neuronal cells were purchased from GIBCO (Cat. No. A10840) and maintained in Neurobasal™ medium (cat #21103-049) supplemented with 2% B-27® Serum-free (50× cat #17504-044) and 0.5 mM GlutaMAX™ (cat #35050-061). […]

CCCCCCCCCCCCNC(=O)CNCCCN(CCCCNCCCN(CC(=O)NCCCCCCCCCCCC)CC(=O)NCCCCCCCCCCCC)CC(=O)NCCCCCCCCCCCC [Compound 67]
relative percent of CSNK2A1 remaining activity normalized to negative control: do possess activity in vitro
